These results are taken from patent US7816319B2, “Methods and products for manipulating uncoupling protein expression” (University of Vermont and State Agricultural College, priority 1999, dated 2010).

For series [1], the system named is L1210/DDP. The series can be described thus: Analysis of DNA fragments after methotrexate treatment. The following applies: 10^-8 M methotrexate, 24 hours. In kind it is cell-based. The method, then: (§1) Additionally, L1210 and L1210/DDP cells were treated with 10^-8 M methotrexate for 24 hours. […] The forward scatter low populations took up ethidium bromide differentially. The L1210 cells took up a moderate amount. […] This latter phenotype—loss in forward scatter and membrane permeability with no “DNA laddering”—is the hall mark of oncosis.

Series [2] deals with L1210. The series is described as above. Format: cell-based. The following applies: 10^-8 M methotrexate, 24 hours. The method, then:
as §1

Series [3] concerns Fas deficient lymphocytes. The series can be described thus: Methotrexate-induced apoptosis in splenic lymphocytes, viability by flow cytometry and trypan blue. Format: cell-based, mice. The following applies: splenocytes of C57BL/6 lpr or gld vs wild type; 5×10^−8 M methotrexate, 18 or 32 hours. The method, then:
8. Fas Deficient Lymphocytes are also drug resistant to methotrexate: We isolated splenic lymphocytes from aged-matched wild type C57BL/6 mice and C57BL6.1pr and C57BL.gld. Splenocytes from C57BL/6 lpr or gld animals were isolated, red cells depleted, and single cell suspensions prepared. Cells were cultured in the absence or presence of 5×10^−8 M methotrexate for 18 or 32 hours. Cells were harvested and viability was determined by flow cytometric analysis and confirmed with trypan blue exclusion.

The test system of series [4] is MDR cells. The series can be described thus: Inhibition of lysosomal UCP translocation. Format: cell-based. As for the experimental part:
MDR cells, which are plasma membrane UCP negative and lysosomal UCP positive were treated with tunicamycin. […] These same cells were treated with tunicamycin and an-anti-UCP2 antibody.

The conditions of series [5]: 5-FU that is taken up by the cell; cited from earlier work.
For series [6] the following is noted: metabolite formed from 5-FU; cited from earlier work.
For series [7], the system named is L1210 DDP. The series can be described thus: Fas expression after treatment with staurosporin or adriamycin. In kind it is cell-based. The source says:
(§2) 4. Treatment of L1210 DDP cells with staurosporin restores Fas expression and susceptibility to drug-induced apoptosis: L1210, but not L1210 DDP, undergo apoptotic cell death. We treated L1210 or L1210 DDP cells with the staurosporin, which inhibits protein kinase C and increases mitochondrial membrane potential, or an anti-cancer agent to which both cells are sensitive, adriamycin. Fas expression was increased or induced on both L1210 and L1210 DDP, respectively, in the presence of staurosporin or adriamycin. The L1210 DDP changed morphologically and began to divide rapidly, changes which appeared to correspond with a reversion back to the phenotype of the L1210 cells.

Series [8] has as its system L1210. The series is described as above. Format: cell-based.
From the text: as §2

Series [9] deals with B16 melanoma cells. The following applies: increasing concentrations of sodium acetate. The method, then:
B16 cells were cultured in the in the presence of different concentrations of sodium acetate and Fas expression was measured.
B16 cells also were cultured in the presence of different concentrations of sodium acetate and Fas expression was measured.

The subject of series [10] is B16 melanoma cells. The conditions noted are these: increasing concentrations of sodium acetate. As for the experimental part: Again cells were cultured in the presence of varying concentration of sodium acetate.
The source holds these as a separate data set.

Series [11] has as its system L1210DDP. The following applies: graded concentrations of sodium acetate. As for the experimental part:
(§3) Sodium Acetate as a mitochondrial modifying agent was examined. L1210 or L1210DDP cells were cultured in the presence of graded concentrations of sodium acetate in the medium. Cells were stained with Jo2.2, a fluorescein conjugated anti-Fas antibody, or an isotype control. Cell surface staining was measured flow cytometrically. The percentage of mean fluorescence intensity over the isotype control was plotted.

In series [12] the test system is L1210. The following applies: graded concentrations of sodium acetate. The method, then: as §3
Series [13] relates to L1210DDP. An excerpt:
(§4) The effects of acetate on susceptibility to Fas-dependent cell death were also examined.

For series [14], the system named is L1210.
From the text: as §4

Consider `CN(Cc1cnc2nc(N)nc(N)c2n1)c1ccc(C(=O)N[C@@H](CCC(=O)O)C(=O)O)cc1` [methotrexate], for which the “DNA laddering (nucleosome sized fragments)” value in series [1] was “did not”; in [2], “produced a ladder of nucleosome sized fragments indicative of apoptosis”. Further, the “susceptibility to methotrexate-induced apoptosis” value in [3] was “decreased susceptibility”.
As to tunicamycin, in series [4], the “localization of intracellular UCP” value was “shift in the intracellular UCP from the lysosome and mitochondria to the plasma membrane”.
Consider `O=c1[nH]cc(F)c(=O)[nH]1` [5-FU, 5-Fluorouracil], for which the half-life in vivo result in series [5] was “about 18 minutes”.
For `NCC(F)C(=O)O` (stereo not drawn) [2-fluoro-β-alanine (FBAL), 2-fluoro-β-alanine], in series [6], the toxicity entry is “neurotoxic and cardiotoxic”.
In the case of `COc1cccc2c1C(=O)c1c(O)c3c(c(O)c1C2=O)C[C@@](O)(C(=O)CO)C[C@@H]3O[C@H]1C[C@H](N)[C@H](O)[C@H](C)O1` [adriamycin], the Fas expression result in series [7] is given as “induced”; in series [8] it was “increased”.
Regarding `CC(=O)[O-].[Na+]` [sodium acetate], the “levels of cell surface Fas” value in series [9] (non-permeabilized B16) is listed as “increased”. In addition, the “levels of intracellular Fas” value in series [9] (permeabilized B16) is “declined”. Moreover, in series [10], the glucose oxidation entry is listed as “decreased”. Also, the glucose utilization result in series [10] is given as “decreased”. The “cell surface Fas expression” value in series [11] and in series [12] was “increases cell surface Fas expression” throughout. Further, the “susceptibility to Fas-dependent cell death” value in [13] and in series [14] was “resulted in susceptibility to Fas-dependent cell death” throughout.
Turning to `CN[C@@H]1C[C@H]2O[C@@](C)([C@@H]1OC)n1c3ccccc3c3c4c(c5c6ccccc6n2c5c31)C(=O)NC4` [staurosporin], the Fas expression entry is given as “induced” in series [7] and “increased” in series [8].
